Several values for one entry are separate records, joined by “and”; a condition that tells them apart may be missing. Equal values may be shown once.

Common to all, as to assay type: cell-based, Mycobacterium tuberculosis
The test system of test [1] is rRUFI M. tuberculosis strains (clpC1 mutants).
Test [2] concerns rECU M. tuberculosis strains (clpC1 mutants).
The test system of test [3] is M. tuberculosis clinical isolates (pan-susceptible, MDR, XDR).

As usually defined, the MIC is the lowest concentration that inhibits growth of the organism. A lower MIC goes with greater potency. As to `NNC(=O)c1ccncc1` [INH, isoniazid], the minimum inhibitory concentration (MIC) in test [1] is 0.22 µM and 0.23 µM and 0.12 µM and 0.24 µM.

With `CC(=O)NC[C@H]1CN(c2ccc(N3CCOCC3)c(F)c2)C(=O)O1` [LZD, linezolid], the MIC in test [2] was 2.5 µM and 1.9 µM and 1.6 µM.

Take `O=[N+]([O-])c1cn2c(n1)OC[C@@H](OCc1ccc(OC(F)(F)F)cc1)C2` [PA824, pretomanid]: the minimal inhibitory concentration (MIC) in test [1] was <0.031 µM and 0.041 µM and 0.046 µM; in test [2] it was less than 0.031 µM.

As to `C/C=C/C[C@@H]1NC(=O)[C@H](CC(C)C)N2C(=O)C(C[C@H](C)[C@H]2O)N(C)C(=O)[C@H](C)NC(=O)[C@H](Cc2ccc(O)c([N+](=O)[O-])c2)NC(=O)[C@H](CC(C)C)N(C)C(=O)[C@H](Cc2cn(C(C)(C)C3CO3)c3ccccc23)NC1=O` (some centres unmarked) [RUFI, rufomycin I], the “activity against monoresistant, MDR, and XDR strains” value in test [3] is reported as “maintains activity”. Moreover, the MIC in test [2] is <0.01 µM and 0.017 µM.

With `[H]/N=C(/N)N[C@H]1[C@H](O)[C@@H](O)[C@H](O[C@@H]2O[C@@H](C)[C@](O)(C=O)[C@H]2O[C@@H]2O[C@@H](CO)[C@H](O)[C@@H](O)[C@@H]2NC)[C@@H](N/C(N)=N\[H])[C@@H]1O` [STR, streptomycin], the MIC in test [2] is 0.15 µM and 0.16 µM.

As to capreomycin, the MIC in test [2] was 0.42 µM and 0.49 µM.
